Measurements as given in publication PMC11093745 (Nature Methods, 2024).

Target: T1, cAMPinG1 (Mus musculus, UniProt Q9DBC7, DEL187-189)
T1 construct: gene Prkar1a; PKA-R1α residues 108-186 and 190-381, N-terminus removed, cpGFP (from GCaMP6f) inserted in the β4–β5 loop replacing 187-189, engineered linkers/cpGFP, N-terminal RSET; expressed in HEK293T, lysate
Assay: sensor fluorescence titration in HEK293T lysate, Hill fit
Assay type: binding

T1 sequence (Q9DBC7 108-186, stated change not applied): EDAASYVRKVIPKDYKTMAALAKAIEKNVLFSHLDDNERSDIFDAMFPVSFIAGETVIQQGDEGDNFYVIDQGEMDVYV
T1 sequence (Q9DBC7 190-381, stated change not applied): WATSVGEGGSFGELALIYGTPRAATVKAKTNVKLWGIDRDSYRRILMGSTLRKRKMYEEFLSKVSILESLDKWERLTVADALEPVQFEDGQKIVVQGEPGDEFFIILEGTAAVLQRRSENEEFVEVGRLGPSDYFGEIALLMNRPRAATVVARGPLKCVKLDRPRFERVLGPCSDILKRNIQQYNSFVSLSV

SMILES: Nc1nc2c(ncn2[C@@H]2O[C@@H]3COP(=O)(O)O[C@H]3[C@H]2O)c(=O)[nH]1 [cGMP]
- Kd: 12.2 µM
